This is an account of results in patent US20220370467A1, “USING OF A PPAR-DELTA AGONIST IN THE TREATMENT OF KIDNEY DISEASE” (Reneo Pharmaceuticals, Inc., priority 2019, published 2022).

One assay addresses T1, FXR (Homo sapiens, UniProt Q96RI1).
T1 sequence (Q96RI1 1-486): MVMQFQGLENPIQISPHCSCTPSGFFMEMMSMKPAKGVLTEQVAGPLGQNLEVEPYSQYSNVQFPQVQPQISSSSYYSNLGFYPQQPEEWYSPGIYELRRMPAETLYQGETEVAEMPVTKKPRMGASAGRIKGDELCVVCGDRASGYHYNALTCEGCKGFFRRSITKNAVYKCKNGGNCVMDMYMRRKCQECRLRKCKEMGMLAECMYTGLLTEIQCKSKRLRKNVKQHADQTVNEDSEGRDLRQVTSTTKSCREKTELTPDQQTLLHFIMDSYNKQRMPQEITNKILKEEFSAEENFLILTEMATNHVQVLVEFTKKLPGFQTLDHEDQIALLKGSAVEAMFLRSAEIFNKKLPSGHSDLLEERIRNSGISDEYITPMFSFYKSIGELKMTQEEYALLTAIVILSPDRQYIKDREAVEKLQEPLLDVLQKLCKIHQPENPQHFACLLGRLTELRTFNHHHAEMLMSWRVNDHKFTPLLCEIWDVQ
Nature of the assay: activity on nuclear receptor FXR.

A further assay concerns the target T2, LXRβ (Homo sapiens, UniProt P55055).
T2 sequence (P55055 1-460): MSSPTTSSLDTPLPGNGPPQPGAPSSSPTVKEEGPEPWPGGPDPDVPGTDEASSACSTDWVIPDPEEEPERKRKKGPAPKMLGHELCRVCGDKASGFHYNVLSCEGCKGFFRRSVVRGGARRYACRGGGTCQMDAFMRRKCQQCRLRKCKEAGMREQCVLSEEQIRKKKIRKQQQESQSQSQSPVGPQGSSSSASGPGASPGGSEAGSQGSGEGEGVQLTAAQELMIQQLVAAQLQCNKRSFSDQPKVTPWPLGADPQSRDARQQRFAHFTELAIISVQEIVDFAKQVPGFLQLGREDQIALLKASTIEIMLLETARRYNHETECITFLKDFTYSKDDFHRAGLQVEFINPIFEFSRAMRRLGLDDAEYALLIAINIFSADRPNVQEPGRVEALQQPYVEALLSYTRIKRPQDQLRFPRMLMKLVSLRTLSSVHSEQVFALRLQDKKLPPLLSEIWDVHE
Nature of the assay: activity on nuclear receptor LXRβ.

The target in the next assay is T3, hPPARδ (Homo sapiens, UniProt Q03181).
T3 construct: (PPARδ: aa 128—C-terminus); expressed in transfected cells; host or cells: HEK293
T3 sequence (Q03181 128-441 limits assumed): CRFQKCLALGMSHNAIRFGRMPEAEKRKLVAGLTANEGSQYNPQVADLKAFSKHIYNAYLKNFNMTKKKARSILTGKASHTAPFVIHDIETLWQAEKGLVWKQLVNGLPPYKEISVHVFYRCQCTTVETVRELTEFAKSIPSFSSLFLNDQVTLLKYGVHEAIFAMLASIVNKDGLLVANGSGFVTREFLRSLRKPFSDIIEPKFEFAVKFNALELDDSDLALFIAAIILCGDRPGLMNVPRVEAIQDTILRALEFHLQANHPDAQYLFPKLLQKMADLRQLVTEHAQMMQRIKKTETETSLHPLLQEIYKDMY
Nature of the assay: in vitro assay on human PPAR subtypes (transactivation): hPPARδ. Type of assay: cell-based. The source says:
“Activation” here is defined as the abovementioned downstream response, which in the case of PPAR's is gene transcription. Gene transcription may be measured indirectly as downstream production of proteins reflective of the activation of the particular PPAR subtype under study. Alternatively, an artificial reporter construct may be employed to study the activation of the individual PPAR's expressed in cells. The ligand binding domain of the particular receptor to be studied may be fused to the DNA binding domain of a transcription factor, which produces convenient laboratory readouts, such as the yeast GAL4 transcription factor DNA binding domain. The fusion protein may be transfected into a laboratory cell line along with a Gal4 enhancer, which effects the expression of the luciferase protein. When such a system is transfected into a laboratory cell line, binding of a receptor agonist to the fusion protein will result in light emission.
The PPAR transient transactivation assay may be based on transient transfection into human HEK293 cells of two plasmids encoding a chimeric test protein and a reporter protein respectively. The chimeric test protein may be a fusion of the DNA binding domain (DBD) from the yeast GAL4 transcription factor to the ligand binding domain (LBD) of the human PPAR proteins. The PPAR-LBD moiety harbored in addition to the ligand binding pocket also has the native activation domain, allowing the fusion protein to function as a PPAR ligand dependent transcription factor. The GAL4 DBD will direct the chimeric protein to bind only to Gal4 enhancers (of which none existed in HEK293 cells). The reporter plasmid contained a Gal4 enhancer driving the expression of the firefly luciferase protein. After transfection, HEK293 cells expressed the GAL4-DBD-PPAR-LBD fusion protein. The fusion protein will in turn bind to the Gal4 enhancer controlling the luciferase expression, and do nothing in the absence of ligand. […] The amount of luciferase protein is measured by light emission after addition of the appropriate substrate. […]

In assay [1] the test system is human retinoid X receptor (hRXR). Nature of the assay: human retinoid X receptor activity.

The structures appear in SMILES notation.

Regarding `Cc1cc(OC/C=C(/c2ccc(F)cc2)c2ccc(C#CCN3CCOCC3)cc2)ccc1OCC(=O)O` [Compound 1, (E)-[4-[3-(4-Fluorophenyl)-3-[4-[3-(morpholin-4-yl)propynyl]phenyl]allyloxy]-2-methyl-phenoxy]acetic acid], the “activity on FXR” value at FXR is listed as “did not show any”. In addition, the “activity on LXRβ” value on LXRβ is “did not show any”. Besides, the “agonist type on PPARδ” value on hPPARδ is “full agonist”. In addition, the “selectivity for PPARδ over PPARα” value at hPPARδ (versus PPARα) is on record as “at least 100 fold”. At hPPARδ (versus PPARγ), the “selectivity for PPARδ over PPARγ” value is “at least 400 fold”. The hRXR activity result in assay [1] is “did not show any”.
